# Experimental data: patent publication US7342122B2, “Bisphosphonate complexes” (priority 2003, dated 2008)
# Entries after “also recorded” stand apart in the source; their conditions may differ.
# Legend:
# DU-145 = assay: Cell growth inhibition, prostatic cancer DU-145; type: cell-based, human; settings: DU-145, prostatic cancer
# Experimental: (§1) KB cells were purchased from Human Science Research Resource Bank (Osaka, Japan). The cells were cultured in Earle's MEM (GIBCO BRL) containing 10% FBS (Bio Whittaker) at 37° C. under 5% CO2. After 24 hours the test compounds were added to the cells at the indicated concentrations. 72 hours later the cells were stained with tripan blue and counted manually. IC50 is calculated as the concentration (aqueous solution) of complex required to inhibit growth of cells by 50%.
# (§2) In a similar fashion a representative number of examples of compounds of the invention were tested for their ability to inhibit the growth/proliferation of cell types representing a number of different cancers. The results are provided in Tables 4-13, below, which provide the Inhibition Constants (IC50, μM) for each compound across various cell lines.
# PC-3 = assay: Cell growth inhibition, prostatic cancer PC-3; type: cell-based; settings: PC-3, prostatic cancer
# Experimental: as §1, §2
# MKN1 = assay: Cell growth inhibition, human stomach cancer MKN1; type: cell-based
# Experimental: as §1, §2
# DMS114 = assay: Cell growth inhibition, lung cancer cell line DMS114; type: cell-based
# Experimental: as §1, §2
# BSY-1 = assay: Cell growth inhibition, breast cancer cell line BSY-1; type: cell-based; settings: BSY-1, breast cancer cell line
# Experimental: as §1, §2
# OVCAR-5 = assay: Cell growth inhibition, ovarian cancer cell line OVCAR-5; type: cell-based; settings: OVCAR-5, ovarian cancer cell line
# Experimental: as §1, §2
# OVCAR-4 = assay: Cell growth inhibition, ovarian cancer cell line OVCAR-4; type: cell-based; settings: OVCAR-4, ovarian cancer cell line
# Experimental: as §1, §2
# MCF-7 = assay: Cell growth inhibition, breast cancer cell line MCF-7; type: cell-based; settings: MCF-7, breast cancer cell line
# Experimental: as §1, §2
# SF-295 = assay: Cell growth inhibition, brain cancer cell line SF-295; type: cell-based; settings: SF-295, brain cancer cell line
# Experimental: as §1, §2
# ACHN = assay: Cell growth inhibition, renal cancer ACHN; type: cell-based
# Experimental: as §1, §2
# LOX-IMVI = assay: Cell growth inhibition, melanoma cell line LOX-IMVI; type: cell-based
# Experimental: as §1, §2
# OVCAR-3 = assay: Cell growth inhibition, ovarian cancer cell line OVCAR-3; type: cell-based; settings: OVCAR-3, ovarian cancer cell line
# Experimental: as §1, §2
# HT-29 = assay: Cell growth inhibition, colon cancer cell line HT-29; type: cell-based; settings: HT-29, colon cancer cell line
# Experimental: as §1, §2
# SNB-75 = assay: Cell growth inhibition, brain cancer cell line SNB-75; type: cell-based; settings: SNB-75, brain cancer cell line
# Experimental: as §1, §2
# NCI-H522 = assay: Cell growth inhibition, lung cancer cell line NCI-H522; type: cell-based
# Experimental: as §1, §2
# SF-268 = assay: Cell growth inhibition, brain cancer cell line SF-268; type: cell-based; settings: SF-268, brain cancer cell line
# Experimental: as §1, §2
# MKN7 = assay: Cell growth inhibition, human stomach cancer MKN7; type: cell-based
# Experimental: as §1, §2
# RXF-631L = assay: Cell growth inhibition, renal cancer RXF-631L; type: cell-based
# Experimental: as §1, §2
# SNB-78 = assay: Cell growth inhibition, brain cancer cell line SNB-78; type: cell-based; settings: SNB-78, brain cancer cell line
# Experimental: as §1, §2
# SF-539 = assay: Cell growth inhibition, brain cancer cell line SF-539; type: cell-based; settings: SF-539, brain cancer cell line
# Experimental: as §1, §2
# MDA-MB-231 = assay: Cell growth inhibition, breast cancer cell line MDA-MB-231; type: cell-based; settings: MDA-MB-231, breast cancer cell line
# Experimental: as §1, §2
# St-4 = assay: Cell growth inhibition, human stomach cancer St-4; type: cell-based; settings: St-4, human stomach cancer
# Experimental: as §1, §2
# NCI-H23 = assay: Cell growth inhibition, lung cancer cell line NCI-H23; type: cell-based
# Experimental: as §1, §2
# MKN28 = assay: Cell growth inhibition, human stomach cancer MKN28; type: cell-based
# Experimental: as §1, §2
# A549 = assay: Cell growth inhibition, lung cancer cell line A549; type: cell-based
# Experimental: as §1, §2
# DMS273 = assay: Cell growth inhibition, lung cancer cell line DMS273; type: cell-based
# Experimental: as §1, §2
# NCI-H226 = assay: Cell growth inhibition, lung cancer cell line NCI-H226; type: cell-based
# Experimental: as §1, §2
# OVCAR-8 = assay: Cell growth inhibition, ovarian cancer cell line OVCAR-8; type: cell-based; settings: OVCAR-8, ovarian cancer cell line
# Experimental: as §1, §2
# MKN74 = assay: Cell growth inhibition, human stomach cancer MKN74; type: cell-based
# Experimental: as §1, §2
# HBC-4 = assay: Cell growth inhibition, breast cancer cell line HBC-4; type: cell-based; settings: HBC-4, breast cancer cell line
# Experimental: as §1, §2
# KM-12 = assay: Cell growth inhibition, colon cancer cell line KM-12; type: cell-based; settings: KM-12, colon cancer cell line
# Experimental: as §1, §2
# HCT-15 = assay: Cell growth inhibition, colon cancer cell line HCT-15; type: cell-based; settings: HCT-15, colon cancer cell line
# Experimental: as §1, §2
# NCI-H460 = assay: Cell growth inhibition, lung cancer cell line NCI-H460; type: cell-based
# Experimental: as §1, §2
# [1] = test system: all cell types (cancer cell lines of Tables 4-12); assay: Cell growth inhibition, mean over all cell types of the panel; type: cell-based; settings: mean over all cell lines of Tables 4-12
# Experimental: as §1, §2
# U251 = assay: Cell growth inhibition, brain cancer cell line U251; type: cell-based
# Experimental: as §1, §2
# MKN45 = assay: Cell growth inhibition, human stomach cancer MKN45; type: cell-based
# Experimental: as §1, §2
# SK-OV-3 = assay: Cell growth inhibition, ovarian cancer cell line SK-OV-3; type: cell-based; settings: SK-OV-3, ovarian cancer cell line
# Experimental: as §1, §2
# HCC2998 = assay: Cell growth inhibition, colon cancer cell line HCC2998; type: cell-based
# Experimental: as §1, §2
# HBC-5 = assay: Cell growth inhibition, breast cancer cell line HBC-5; type: cell-based; settings: HBC-5, breast cancer cell line
# Experimental: as §1, §2
# HCT-116 = assay: Cell growth inhibition, colon cancer cell line HCT-116; type: cell-based; settings: HCT-116, colon cancer cell line
# Experimental: as §1, §2
# [2] = In vitro assay, adsorption of Pt complexes to hydroxyapatite; type: binding; settings: for adsorption percentage to hydroxyapatite: 100 mg of hydroxyapatite, HEPES buffer pD=7.8, 1.5 h, 37° C.; for adsorption to hydroxyapatite, comparison in words: FIGS. 1 and 2, 31P NMR, 1H NMR, AAS
# Experimental: Each of a 5, 10, 15, 25, 35, and 100 mg sample of hydroxyapatite (Bio-Rad Macro-Prep Ceramic Hydroxyapatite, type I, 40 μm) was added to 2 ml of HEPES buffer at pD=7.8 and the resulting mixture was shaken for about 24 h at 37° C. Then, 100 μl of each complexes dissolved in HEPES buffer at pD=7.8 was added and the mixtures were shaken for 1.5 h at 37° C. All suspensions were filtered, and these solutions were measured by ^31P NMR (Varian VXR-300S) and Atomic Absorption Spectrometry (Hitachi Z-5710 AAS) of platinum or, for carboplatin, by ^1H NMR. Percentage adsorption to hydroxyapatite was calculated as follows. From NMR: Binding percentage/%=[(A−B)/A]×100 From AAS: Binding percentage/%=[(C−D)/C]×100 • A=the integration intensity of Pt(II) complex • B=the integration intensity of Pt(II) complex after reacted with hydroxyapatite • C=the concentration of Pt(II) complex • D=the concentration of Pt(II) complex after reacted with hydroxyapatite
molecule,measurement,setting,value
cis-Pt (NH3)2(Pyrophosphate) [Example 8],log10 IC50 (M),DU-145,-5.29
same,log10 IC50 (M),PC-3,-4.45
same,log10 IC50 (M),MKN1,-5.18
same,log10 IC50 (M),DMS114,-4.85
same,log10 IC50 (M),BSY-1,-5.2
same,log10 IC50 (M),OVCAR-5,-4.52
same,log10 IC50 (M),OVCAR-4,-4.83
same,log10 IC50 (M),MCF-7,-4.77
same,log10 IC50 (M),SF-295,-5.22
same,log10 IC50 (M),ACHN,-5.37
same,log10 IC50 (M),LOX-IMVI,-4.85
same,log10 IC50 (M),OVCAR-3,-4.69
same,log10 IC50 (M),HT-29,-4.44
same,log10 IC50 (M),SNB-75,-4.93
same,log10 IC50 (M),NCI-H522,-5.16
same,log10 IC50 (M),SF-268,-5.11
same,log10 IC50 (M),MKN7,-4.76
same,log10 IC50 (M),RXF-631L,-4.74
same,log10 IC50 (M),SNB-78,-4.61
same,log10 IC50 (M),SF-539,-5.17
same,log10 IC50 (M),MDA-MB-231,-4.35
same,log10 IC50 (M),St-4,-4.61
same,log10 IC50 (M),NCI-H23,-5.2
same,log10 IC50 (M),MKN28,-4.52
same,log10 IC50 (M),A549,-4.79
same,log10 IC50 (M),DMS273,-4.97
same,log10 IC50 (M),NCI-H226,-4.64
same,log10 IC50 (M),OVCAR-8,-4.72
same,log10 IC50 (M),MKN74,-4.5
same,log10 IC50 (M),HBC-4,-4.83
same,log10 IC50 (M),KM-12,-4.43
same,log10 IC50 (M),HCT-15,-4.51
same,log10 IC50 (M),NCI-H460,-5.22
same,log10 IC50 (M),[1],-4.83
same,log10 IC50 (M),U251,-4.64
same,log10 IC50 (M),MKN45,-4.91
same,log10 IC50 (M),SK-OV-3,-4.65
same,log10 IC50 (M),HCC2998,-4.57
same,log10 IC50 (M),HBC-5,-5.57
same,log10 IC50 (M),HCT-116,-4.58
"O=P1(O)CP(=O)(O)[O][Pt]2([NH][C@@H]3CCCC[C@H]3[NH]2)[O]1 (some centres unmarked) [Example 2, Pt(dach)(MDP)]",adsorption percentage to hydroxyapatite,[2],79.6%
same,"adsorption to hydroxyapatite, comparison in words",[2],adsorbed slightly more than cis-Pt(NH3)2(MDP); also recorded: adsorbed quite significantly more than carboplatin
"[NH2][Pt]1([NH2])[O]P(=O)(O)CP(=O)(O)[O]1 [Example 1, cis-Pt(NH3)2(MDP)]",adsorption percentage to hydroxyapatite,[2],69.3%
same,"adsorption to hydroxyapatite, comparison in words",[2],adsorbed quite significantly more than carboplatin
